Several values for one entry are separate records, joined by “and”; a condition that tells them apart may be missing. Equal values may be shown once.
Target: T1, PfCRT^Dd2 (Plasmodium falciparum, UniProt Q8IBZ9, A220S/I356T/K76T/M74I/N326S/N75E/Q271E/R371I)
T1 sequence (Q8IBZ9 1-424 M74I/N75E/K76T/A220S/Q271E/N326S/I356T/R371I): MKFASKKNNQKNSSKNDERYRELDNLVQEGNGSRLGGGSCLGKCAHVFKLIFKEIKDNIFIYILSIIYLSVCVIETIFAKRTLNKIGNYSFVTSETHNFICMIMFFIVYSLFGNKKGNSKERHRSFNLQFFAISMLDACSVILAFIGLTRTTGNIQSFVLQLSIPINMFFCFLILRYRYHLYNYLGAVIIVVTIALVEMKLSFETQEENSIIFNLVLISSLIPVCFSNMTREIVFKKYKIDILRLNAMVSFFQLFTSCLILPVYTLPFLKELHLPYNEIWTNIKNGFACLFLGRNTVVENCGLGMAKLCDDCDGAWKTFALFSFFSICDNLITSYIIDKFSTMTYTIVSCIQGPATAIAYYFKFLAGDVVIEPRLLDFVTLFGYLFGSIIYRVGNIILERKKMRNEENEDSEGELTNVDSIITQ
Assay: Competition kinetics of drug transport (radiolabeled substrate plus cold inhibitor), PfCRT^Dd2-expressing oocytes
Type: cell-based
Design: expressed in transfected cells; host or cells: Xenopus laevis oocytes injected with in vitro transcribed RNA (pSP64T)
Conditions: single replicates
Experimental: The experimental procedure and the data analysis were as described above.
The difference between the two models lies in the value of α, a parameter describing how much the affinity for the substrate changes when the inhibitor is already bound, and vice versa. […] The resulting Vmax,app values and the Vmax,app/KM,app ratios were plotted as a function of the inhibitor concentration (Fig 5A).
Drug transport assays were performed as previously described. Briefly, measurements of radiolabeled drug uptake were made over 1 h, unless otherwise specified. […] Where specified, one or more unlabeled drugs were also present at the indicated concentrations. […] The uptake assays were terminated by removing the oocytes from the reaction medium and washing them three times with 2 mL of ice-cold ND96 buffer. Each oocyte was transferred to a separate scintillation vial and lysed by the addition of 200 μL of a 5% SDS solution. The radioactivity in the sample was measured using a liquid scintillation analyser Tri-Carb 4910 TR (PerkinElmer). Water-injected oocytes were analyzed in parallel as a negative control. The buffer from each condition was measured in duplicate in parallel to each experiment to transform counts per minute into pmol of drug. Drug uptake attributable to PfCRT was determined by subtracting the background uptake from water-injected oocytes from that of PfCRT-expressing oocytes. In all cases, at least three independent experiments were performed on oocytes from different frogs, and for each condition in an experiment, measurements were made from 10 oocytes per treatment.
The following equations were adopted from Segel (1993), and the reader is referred to that text for the assumptions made in the author’s approach in the derivation of each equation [31]. The concentration of substrate is denoted as [S1] and the concentration of the inhibiting substrate is denoted as [S2]. KS1 and KS2 are the dissociation constants for the respective substrate-protein complexes.
Analyses of the kinetic data were performed using SigmaPlot version 13.0 and Python. The drug competition models were globally fit to the kinetic data using the least-squares method and ranked according to their corrected Akaike information criterion difference (ΔAICC) and their Akaike weight, using Python. The two top-ranked models were compared using an F-test.
This factor reflects how much the affinity of the transporter for one drug changes when the other drug is already bound in the protein cavity. In the former model, α > 0 and α ≠ 1. In the latter model, it could be thought of as if α = 1. Because of this, discriminating between the two models also means determining the value of α. In Mixed-type (Partial) inhibition, the apparent maximal velocity (Vmax,app) is given by Eq 22, Vmax,app=Vmax(1+β[S2]/αKS2)/(1+[S2]/αKS2) (Eq 22)
Vmax,app is the maximal rate of substrate transport at a certain inhibitor concentration. The half-maximal inhibitory concentration is given by the term in the denominator different from [S2], which in this case is αKS2. This means that by plotting Vmax,app as a function of [S2], the value of αKS2 can be derived after fitting the curve to Eq 23.
The half-maximal inhibitory concentration derived from this hyperbolic equation is equal to KS2. By plotting Vmax,app/KM,app as a function of [S2], one can derive KS2 after fitting the curve to Eq 25. The value of α can then be calculated dividing αKS2 by KS2.

CCN(CC)CCCC(C)Nc1ccnc2cc(Cl)ccc12 (stereo not drawn) [CQ, chloroquine]
PfCRTDd2-mediated CQ transport 10 µM CQ (0 µM PPQ): 0.87 pmol oocyte-1 h-1 and 1.33 pmol oocyte-1 h-1 and 1.00 pmol oocyte-1 h-1 and 0.95 pmol oocyte-1 h-1 | PfCRTDd2-mediated CQ transport 10 µM CQ (50 µM PPQ): 1.41 pmol oocyte-1 h-1 and 1.10 pmol oocyte-1 h-1 and 0.61 pmol oocyte-1 h-1 | PfCRTDd2-mediated CQ transport 10 µM CQ (125 µM PPQ): 0.68 pmol oocyte-1 h-1 and 1.41 pmol oocyte-1 h-1 and 1.40 pmol oocyte-1 h-1 | PfCRTDd2-mediated CQ transport 10 µM CQ (200 µM PPQ): 0.89 pmol oocyte-1 h-1 and 0.30 pmol oocyte-1 h-1 and 1.02 pmol oocyte-1 h-1 | PfCRTDd2-mediated CQ transport 10 µM CQ (350 µM PPQ): 1.16 pmol oocyte-1 h-1 and 0.24 pmol oocyte-1 h-1 and 0.95 pmol oocyte-1 h-1 | PfCRTDd2-mediated CQ transport 10 µM CQ (500 µM PPQ): 0.43 pmol oocyte-1 h-1 and 1.04 pmol oocyte-1 h-1 and 0.36 pmol oocyte-1 h-1 | PfCRTDd2-mediated CQ transport 50 µM CQ (0 µM PPQ): 3.90 pmol oocyte-1 h-1 and 4.91 pmol oocyte-1 h-1 and 4.76 pmol oocyte-1 h-1 and 7.49 pmol oocyte-1 h-1 and 10.46 pmol oocyte-1 h-1 and 5.04 pmol oocyte-1 h-1 and 3.98 pmol oocyte-1 h-1 | PfCRTDd2-mediated CQ transport 50 µM CQ (50 µM PPQ): 6.48 pmol oocyte-1 h-1 and 5.07 pmol oocyte-1 h-1 and 3.08 pmol oocyte-1 h-1 and 4.12 pmol oocyte-1 h-1 | PfCRTDd2-mediated CQ transport 50 µM CQ (125 µM PPQ): 4.96 pmol oocyte-1 h-1 and 2.54 pmol oocyte-1 h-1 and 3.07 pmol oocyte-1 h-1 | PfCRTDd2-mediated CQ transport 50 µM CQ (200 µM PPQ): 3.46 pmol oocyte-1 h-1 and 2.63 pmol oocyte-1 h-1 and 3.11 pmol oocyte-1 h-1 | PfCRTDd2-mediated CQ transport 50 µM CQ (350 µM PPQ): 2.38 pmol oocyte-1 h-1 and 2.66 pmol oocyte-1 h-1 and 3.48 pmol oocyte-1 h-1 | PfCRTDd2-mediated CQ transport 50 µM CQ (500 µM PPQ): 2.32 pmol oocyte-1 h-1 and 2.15 pmol oocyte-1 h-1 and 3.29 pmol oocyte-1 h-1 | PfCRTDd2-mediated CQ transport 100 µM CQ (0 µM PPQ): 8.35 pmol oocyte-1 h-1 and 7.99 pmol oocyte-1 h-1 and 8.53 pmol oocyte-1 h-1 | PfCRTDd2-mediated CQ transport 100 µM CQ (50 µM PPQ): 9.49 pmol oocyte-1 h-1 and 7.68 pmol oocyte-1 h-1 and 5.55 pmol oocyte-1 h-1 | PfCRTDd2-mediated CQ transport 100 µM CQ (125 µM PPQ): 5.95 pmol oocyte-1 h-1 and 8.32 pmol oocyte-1 h-1 and 6.55 pmol oocyte-1 h-1 | PfCRTDd2-mediated CQ transport 100 µM CQ (200 µM PPQ): 5.59 pmol oocyte-1 h-1 and 6.01 pmol oocyte-1 h-1 and 5.66 pmol oocyte-1 h-1 | PfCRTDd2-mediated CQ transport 100 µM CQ (350 µM PPQ): 5.36 pmol oocyte-1 h-1 and 3.63 pmol oocyte-1 h-1 and 6.93 pmol oocyte-1 h-1 | PfCRTDd2-mediated CQ transport 100 µM CQ (500 µM PPQ): 4.92 pmol oocyte-1 h-1 and 5.26 pmol oocyte-1 h-1 and 4.17 pmol oocyte-1 h-1 | PfCRTDd2-mediated CQ transport 200 µM CQ (0 µM PPQ): 17.86 pmol oocyte-1 h-1 and 12.77 pmol oocyte-1 h-1 and 15.13 pmol oocyte-1 h-1 | PfCRTDd2-mediated CQ transport 200 µM CQ (50 µM PPQ): 13.29 pmol oocyte-1 h-1 and 13.73 pmol oocyte-1 h-1 and 11.63 pmol oocyte-1 h-1 | PfCRTDd2-mediated CQ transport 200 µM CQ (125 µM PPQ): 10.25 pmol oocyte-1 h-1 and 14.35 pmol oocyte-1 h-1 and 10.52 pmol oocyte-1 h-1 | PfCRTDd2-mediated CQ transport 200 µM CQ (200 µM PPQ): 10.68 pmol oocyte-1 h-1 and 10.09 pmol oocyte-1 h-1 and 9.74 pmol oocyte-1 h-1 | PfCRTDd2-mediated CQ transport 200 µM CQ (350 µM PPQ): 11.39 pmol oocyte-1 h-1 and 6.27 pmol oocyte-1 h-1 and 10.49 pmol oocyte-1 h-1 | PfCRTDd2-mediated CQ transport 200 µM CQ (500 µM PPQ): 7.85 pmol oocyte-1 h-1 and 9.03 pmol oocyte-1 h-1 and 9.31 pmol oocyte-1 h-1 | PfCRTDd2-mediated CQ transport 300 µM CQ (0 µM PPQ): 20.89 pmol oocyte-1 h-1 and 20.25 pmol oocyte-1 h-1 and 8.92 pmol oocyte-1 h-1 and 15.94 pmol oocyte-1 h-1 and 19.02 pmol oocyte-1 h-1 | PfCRTDd2-mediated CQ transport 300 µM CQ (50 µM PPQ): 15.04 pmol oocyte-1 h-1 and 14.02 pmol oocyte-1 h-1 and 15.34 pmol oocyte-1 h-1 | PfCRTDd2-mediated CQ transport 300 µM CQ (125 µM PPQ): 15.92 pmol oocyte-1 h-1 and 14.01 pmol oocyte-1 h-1 and 11.66 pmol oocyte-1 h-1 | PfCRTDd2-mediated CQ transport 300 µM CQ (200 µM PPQ): 11.11 pmol oocyte-1 h-1 and 12.97 pmol oocyte-1 h-1 and 12.36 pmol oocyte-1 h-1 | PfCRTDd2-mediated CQ transport 300 µM CQ (350 µM PPQ): 11.84 pmol oocyte-1 h-1 and 11.95 pmol oocyte-1 h-1 and 8.89 pmol oocyte-1 h-1 | PfCRTDd2-mediated CQ transport 300 µM CQ (500 µM PPQ): 11.31 pmol oocyte-1 h-1 and 9.89 pmol oocyte-1 h-1 and 9.29 pmol oocyte-1 h-1 | PfCRTDd2-mediated CQ transport 400 µM CQ (0 µM PPQ): 20.79 pmol oocyte-1 h-1 and 22.58 pmol oocyte-1 h-1 and 19.58 pmol oocyte-1 h-1 and 16.43 pmol oocyte-1 h-1 | PfCRTDd2-mediated CQ transport 400 µM CQ (50 µM PPQ): 18.68 pmol oocyte-1 h-1 and 19.12 pmol oocyte-1 h-1 and 16.44 pmol oocyte-1 h-1 | PfCRTDd2-mediated CQ transport 400 µM CQ (125 µM PPQ): 13.83 pmol oocyte-1 h-1 and 18.03 pmol oocyte-1 h-1 and 15.59 pmol oocyte-1 h-1 | PfCRTDd2-mediated CQ transport 400 µM CQ (200 µM PPQ): 14.22 pmol oocyte-1 h-1 and 13.47 pmol oocyte-1 h-1 and 13.35 pmol oocyte-1 h-1 | PfCRTDd2-mediated CQ transport 400 µM CQ (350 µM PPQ): 14.38 pmol oocyte-1 h-1 and 9.22 pmol oocyte-1 h-1 | PfCRTDd2-mediated CQ transport 400 µM CQ (500 µM PPQ): 12.77 pmol oocyte-1 h-1 and 10.16 pmol oocyte-1 h-1 and 8.34 pmol oocyte-1 h-1

— publication PMC10281575, “PfCRT mutations conferring piperaquine resistance in falciparum malaria shape the kinetics of quinoline drug binding and transport” (PLOS Pathogens, 2023)
